These results are taken from patent US9115092B2, “Substituted quinazoline and pyrido-pyrimidine derivatives” (Asana Biosciences, LLC, priority 2010, dated 2015).

Assay [1] relates to pAKT(5473) (phosphorylated at serine 473), PC3 cells. The assay is described as follows: In-cell Western assay, pAKT(5473) in PC3 cells. Format: cell-based. The note with it: Homo sapiens, PC-3, In-cell Western, read-out: pAkt-S473. The method, then:
Cells from human prostate cancer cell line PC3 (American Type Culture Collection (ATCC), Manassas, Va. 20108 USA) were seeded at an optimal density of 22,000 cell/well in 96-well plates containing Ham's F12K medium (90 μL) and incubated overnight. The compound dilutions were carried out in 100% DMSO followed by a dilution in the medium. Test compounds were added in serial dilutions to the wells and incubated for 2 h. The cells were washed and fixed with 4% paraformaldehyde. After incubation at room temperature for 1 h in the dark, blocking was done for 2 h at room temperature. Primary antibodies for phosphorylated (p) AKT(5473) (phosphorylated at serine 473), pAKT(T308) (phosphorylated at threonine 308) and for pS6RP(S235/236) (phosphorylated at serine 235/236) (commercially available from Cell Signaling Technology®, whose protocol was followed for the in-cell western assay, were diluted to the required concentration and added to the corresponding wells followed by overnight incubation at 4° C. Eu-labeled rabbit (PE) (Perkin-Elmer USA catalog #AD0106) secondary antibody was added and incubated for 2 h at room temperature. Delfia® enhancement solution (cat #1244-105, Perkin Elmer USA) was subsequently added to the plate before taking the reading at 615 nm with excitation wavelength of 340 nm, after which 0.5 μg/mL of Hoechst® 33258 dye (Catalog #86140-5, Sigma) was added to the plate and fluorescence emission was read at 460 nm with 355 nm excitation, to evaluate the correction factor. IC50 values were calculated using a sigmoidal dose-response curve fit in GraphPad Prism® v5 software.

Another assay concerns the target T1, mTOR kinase (Homo sapiens, UniProt P42345).
T1 construct: purchased Millipore, USA
The assay is described as follows: mTOR kinase TR-FRET assay. Format: biochemical. The note with it: read-out: mTO R. In a few lines:
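TR-FRET read-out (340 nm excitation, 615/665 nm emission) of Thr389 phosphorylation of a ULight-labeled p70 S6K peptide (50 nM) by mTOR, 20 μM ATP, 60 min room temperature after 60 min compound preincubation. Buffer HEPES pH 7.5 with MnCl2, EGTA; IC50 by sigmoidal dose-response.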

Assay [2] has as its target T2, PI3Kα (wild-type), P110/P85α (Homo sapiens, UniProt P42336).
T2 construct: made in house; host or cells: SF9 insect cells
The assay is described as follows: PI3 Kinase TR-FRET assay, PI3Kα (wild-type). Format: biochemical. In a few lines: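 TR-FRET read-out of PIP3 formation via biotin-PIP3 displacement (665/615 nm ratio) gave IC50 curves. Enzyme: 5 ng wild-type P110/P85α from Sf9 cells, 60 min RT with compound and PIP2 (MgCl2 40 mM, DTT 5 mM), then 30 min RT kinase reaction at 10 μM ATP and 10 μM PIP2.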
For orientation: Time-resolved FRET reads energy transfer from a long-lived donor to a nearby acceptor.

The next assay deals with PC3 cells. The experiment in a line: XTT assay for cell viability, PC3 cells. Format: cell-based, human. Conditions: Homo sapiens, PC-3, cell viability. In a few lines: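 PC3 cells seeded at 1000 cells/well, grown 24 h, then exposed to serial dilutions of compound for 96 h. Viability read by XTT dye at 37° C, absorbance 465 nm. EC50 from sigmoidal dose-response fit.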
(In general: Tetrazolium dyes change colour on reduction, which living cells bring about.)

For assay [3], the system named is pS6RP(S235/236), PC3 cells. The experiment in a line: In-cell Western assay, pS6RP(S235/236) in PC3 cells. Format: cell-based, human. The note with it: Homo sapiens, PC-3, In-cell Western. In a few lines: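 Overnight-seeded PC3 cells were treated 2 h with serially diluted compound, then fixed and immunostained with phospho-specific primary antibodies and Eu-labelled secondary. Time-resolved Eu signal read at 615 nm (ex 340 nm), normalised by Hoechst 33258 staining (ex 355/em 460 nm); IC50 from sigmoidal dose-response fit.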

Structures are written as SMILES.

T2 sequence (P42336 whole entry): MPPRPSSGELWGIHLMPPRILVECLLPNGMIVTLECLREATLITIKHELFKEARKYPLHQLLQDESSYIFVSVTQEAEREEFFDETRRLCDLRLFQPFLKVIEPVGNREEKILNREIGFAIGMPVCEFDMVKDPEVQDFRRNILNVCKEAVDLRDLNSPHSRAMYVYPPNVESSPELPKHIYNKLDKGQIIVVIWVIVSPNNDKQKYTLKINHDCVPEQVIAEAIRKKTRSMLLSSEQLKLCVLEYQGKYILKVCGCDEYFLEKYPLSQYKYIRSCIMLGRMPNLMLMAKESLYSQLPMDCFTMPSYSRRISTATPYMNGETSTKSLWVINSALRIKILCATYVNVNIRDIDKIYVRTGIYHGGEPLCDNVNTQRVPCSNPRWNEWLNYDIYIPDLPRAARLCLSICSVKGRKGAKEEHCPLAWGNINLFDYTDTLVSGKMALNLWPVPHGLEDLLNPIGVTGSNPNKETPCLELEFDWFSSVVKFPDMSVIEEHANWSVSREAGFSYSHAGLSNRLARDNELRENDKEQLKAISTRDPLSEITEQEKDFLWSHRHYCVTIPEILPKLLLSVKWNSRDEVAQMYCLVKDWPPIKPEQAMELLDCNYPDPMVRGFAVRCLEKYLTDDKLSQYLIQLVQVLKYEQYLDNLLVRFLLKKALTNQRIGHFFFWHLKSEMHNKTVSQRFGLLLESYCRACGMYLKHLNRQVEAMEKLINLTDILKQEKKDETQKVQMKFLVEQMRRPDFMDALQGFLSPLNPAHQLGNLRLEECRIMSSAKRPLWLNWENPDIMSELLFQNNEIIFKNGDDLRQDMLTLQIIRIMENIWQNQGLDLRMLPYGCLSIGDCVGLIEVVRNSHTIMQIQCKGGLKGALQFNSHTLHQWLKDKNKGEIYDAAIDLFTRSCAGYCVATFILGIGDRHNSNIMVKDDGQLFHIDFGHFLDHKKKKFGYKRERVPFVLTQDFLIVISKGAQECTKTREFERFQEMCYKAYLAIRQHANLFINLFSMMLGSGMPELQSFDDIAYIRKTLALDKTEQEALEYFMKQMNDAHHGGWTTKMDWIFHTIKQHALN
T2 sequence (P27986 whole entry partner): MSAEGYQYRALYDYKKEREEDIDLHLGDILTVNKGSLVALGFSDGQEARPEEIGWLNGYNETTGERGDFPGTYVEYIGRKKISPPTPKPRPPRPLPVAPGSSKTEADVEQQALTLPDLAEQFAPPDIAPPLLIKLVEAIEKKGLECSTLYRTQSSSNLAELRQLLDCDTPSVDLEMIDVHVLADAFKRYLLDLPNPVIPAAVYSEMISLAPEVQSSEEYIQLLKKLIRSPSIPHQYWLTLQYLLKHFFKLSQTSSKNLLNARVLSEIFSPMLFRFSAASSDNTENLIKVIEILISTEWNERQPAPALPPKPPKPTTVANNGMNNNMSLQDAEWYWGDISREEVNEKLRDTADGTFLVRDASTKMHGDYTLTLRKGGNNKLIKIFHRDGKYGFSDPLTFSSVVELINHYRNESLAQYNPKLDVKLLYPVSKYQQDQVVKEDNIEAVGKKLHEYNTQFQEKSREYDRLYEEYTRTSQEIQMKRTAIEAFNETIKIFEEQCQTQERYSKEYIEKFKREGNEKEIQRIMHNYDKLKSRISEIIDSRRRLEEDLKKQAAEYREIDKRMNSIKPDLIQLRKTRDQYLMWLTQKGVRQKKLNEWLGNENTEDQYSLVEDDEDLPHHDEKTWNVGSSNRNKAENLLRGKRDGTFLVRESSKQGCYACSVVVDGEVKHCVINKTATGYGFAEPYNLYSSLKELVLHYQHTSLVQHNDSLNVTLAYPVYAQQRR

Regarding `CN(C)C(=O)c1ccc(NC(=O)Nc2ccc(-c3nc(N4CCOCC4)c4ccc(-c5ccccn5)cc4n3)c(F)c2)cc1` [Example 268, 4-(3-(3-fluoro-4-(4-morpholino-7-(pyridin-2-yl)quinazolin-2-yl)phenyl)ureido)-N,N-dimethyl-benzamide], the IC50 was 0.501 to 5 µM in assay [1], less than 0.05 µM on mTOR kinase, less than 0.05 µM in assay [2] and 0.201 to 10 µM in the assay on PC3 cells.
In the case of `CN(C)C(=O)c1ccc(NC(=O)Nc2ccc(-c3nc(N4CCOCC4)c4ccc(-c5ccco5)cc4n3)cn2)cc1` [Example 159, 4-(3-(5-(7-(furan-2-yl)-4-morpholino-quinazolin-2-yl)pyridin-2-yl)ureido)-N,N-dimethyl-benzamide], the IC50 in assay [1] is less than 0.1 µM; on mTOR kinase, 0.201 to 10 µM; in assay [2] it was less than 0.05 µM; in the assay on PC3 cells it was less than 0.1 µM.
`CN1CCN(C(=O)c2ccc(NC(=O)Nc3ccc(-c4nc(N5CCOCC5)c5cc(F)c(-c6cccnc6)cc5n4)cc3F)cc2)CC1` [Example 211, 1-(2-fluoro-4-(6-fluoro-4-morpholino-7-(pyridin-3-yl)quinazolin-2-yl)phenyl)-3-(4-(4-methylpiperazine-1-carbonyl)phenyl)urea]: the IC50 in assay [3] is 0.201 to 10 µM; on mTOR kinase, less than 0.05 µM; in assay [2], less than 0.05 µM; in the assay with PC3 cells it was less than 0.1 µM.
As for `CN(C)C1CCN(C(=O)c2ccc(NC(=O)Nc3ccc(-c4nc(N5CCOCC5)c5ccc(C(C)(C)O)cc5n4)cc3)cc2)CC1` [Example 286, 1-(4-(4-(dimethylamino)piperidine-1-carbonyl)phenyl)-3-(4-(7-(2-hydroxypropan-2-yl)-4-morpholino-quinazolin-2-yl)phenyl)urea], the IC50 in assay [3] was 0.201 to 10 µM; on mTOR kinase, less than 0.05 µM; in assay [2], less than 0.05 µM; in the assay on PC3 cells, 0.201 to 10 µM.
Consider `CN(C)C(=O)c1ccc(NC(=O)Nc2ccc(-c3nc(N4CCOCC4)c4ccc(C(C)(C)O)cc4n3)cc2)cc1` [Example 16, 4-(3-(4-(7-(2-hydroxypropan-2-yl)-4-morpholino-quinazolin-2-yl)phenyl)ureido)-N,N-dimethyl-benzamide], for which the IC50 in assay [3] was 0.201 to 10 µM; at mTOR kinase, less than 0.05 µM; in assay [2], less than 0.05 µM; in the assay on PC3 cells, 0.201 to 10 µM.
Regarding `CC(O)c1ccc(-c2ccc3c(N4CCOCC4)nc(-c4ccc(NC(=O)Nc5ccc(C(=O)N(C)C)cc5)c(F)c4)nc3c2)o1` (centres unmarked) [Example 214, 4-(3-(2-fluoro-4-(7-(5-(1-hydroxyethyl)furan-2-yl)-4-morpholino-quinazolin-2-yl)phenyl)ureido)-N,N-dimethyl-benzamide], the IC50 in assay [3] is 0.201 to 10 µM; on mTOR kinase, less than 0.05 µM; in assay [2], less than 0.05 µM; in the assay on PC3 cells, less than 0.1 µM.
`Cc1ccc(-c2ccc3c(N4CCOCC4)nc(-c4ccc(NC(=O)Nc5ccc(C(=O)N(C)CCN(C)C)cc5)cc4)nc3c2)o1` [Example 63, N-(2-dimethylamino-ethyl)-N-methyl-4-(3-{4-[7-(5-methyl-furan-2-yl)-4-morpholin-4-yl-quinazolin-2-yl]-phenyl}-ureido)-benzamide]: the IC50 in assay [3] is 0.1 to 0.5 µM; at mTOR kinase it was less than 0.05 µM; in assay [2] it was less than 0.05 µM; in the assay with PC3 cells, 0.1 to 0.5 µM.
Take `COc1ncc(-c2cnc3c(N4CCOCC4)nc(-c4ccc(NC(=O)Nc5ccc(C(=O)N(C)C)cc5)cc4)nc3c2)cn1` [Example 94, 4-(3-(4-(7-(2-methoxypyrimidin-5-yl)-4-morpholino-pyrido[3,2-d]pyrimidin-2-yl)phenyl)ureido)-N,N-dimethyl-benzamide]: the IC50 in assay [3] is 0.201 to 10 µM; on mTOR kinase, less than 0.05 µM; in assay [2] it was less than 0.05 µM; in the assay on PC3 cells it was 0.201 to 10 µM.
In the case of `N[C@@H]1CCN(C(=O)c2ccc(NC(=O)Nc3ccc(-c4nc(N5CCOCC5)c5ccc(-c6cncnc6)cc5n4)cc3)cc2)C1` [Example 197, (R)-1-(4-(3-aminopyrrolidine-1-carbonyl)phenyl)-3-(4-(4-morpholino-7-(pyrimidin-5-yl)quinazolin-2-yl)phenyl)urea], the IC50 in assay [3] was 0.201 to 10 µM; at mTOR kinase it was less than 0.05 µM; in assay [2], less than 0.05 µM; in the assay with PC3 cells, 0.201 to 10 µM.
With `CN(C)[C@@H]1CCN(C(=O)c2ccc(NC(=O)Nc3ccc(-c4nc(N5CCOCC5)c5ncc(-c6cnn(C)c6)cc5n4)cc3F)cc2)C1` [Example 205, (R)-1-(4-(3-(dimethylamino)pyrrolidine-1-carbonyl)phenyl)-3-(2-fluoro-4-(7-(1-methyl-1H-pyrazol-4-yl)-4-morpholino-pyrido[3,2-d]pyrimidin-2-yl)phenyl)urea], the IC50 in assay [3] was 0.201 to 10 µM; at mTOR kinase, less than 0.05 µM; in assay [2] it was less than 0.05 µM; in the assay with PC3 cells it was 0.201 to 10 µM.
Take `COc1cc2nc(-c3ccc(NC(=O)Nc4ccc(C(=O)N(C)C)cc4)cc3)nc(N3CCOCC3)c2cc1OC` [Example 181, 4-(3-(4-(6,7-dimethoxy-4-morpholino-quinazolin-2-yl)phenyl)ureido)-N,N-dimethyl-benzamide]: the IC50 in assay [3] is 0.201 to 10 µM; on mTOR kinase, less than 0.05 µM; in assay [2] it was 0.05 to 0.2 µM; with PC3 cells, 0.201 to 10 µM.
With `CNC(=O)c1ccc(NC(=O)Nc2ccc(-c3nc(N4CCOCC4)c4ncc(-c5cnn(C)c5)cc4n3)cc2)cc1` [Example 89, N-methyl-4-(3-(4-(7-(1-methyl-1H-pyrazol-4-yl)-4-morpholino-pyrido[3,2-d]pyrimidin-2-yl)phenyl)ureido)-benzamide], the IC50 in assay [3] is 0.201 to 10 µM; at mTOR kinase it was less than 0.05 µM; in assay [2], less than 0.05 µM; in the assay with PC3 cells it was 0.201 to 10 µM.
As for `CN(C)C1CCN(C(=O)c2ccc(NC(=O)Nc3ccc(-c4nc(N5CCOCC5)c5ncc(-c6cncnc6)cc5n4)cc3)cc2)C1` (stereo in doubt) [Example 199, (S)-1-(4-(3-(dimethylamino)pyrrolidine-1-carbonyl)phenyl)-3-(4-(4-morpholino-7-(pyrimidin-5-yl)pyrido[3,2-d]pyrimidin-2-yl)phenyl)urea], the IC50 in assay [3] was 0.201 to 10 µM; on mTOR kinase, less than 0.05 µM; in assay [2] it was less than 0.05 µM; in the assay on PC3 cells, 0.201 to 10 µM.
As to `O=C(Nc1ccc(C(=O)N2CCC(O)C2)cc1)Nc1ccc(-c2nc(N3CCOCC3)c3ccc(-c4cncnc4)cc3n2)cc1` (centres unmarked) [Example 189, 1-(4-(3-hydroxypyrrolidine-1-carbonyl)phenyl)-3-(4-(4-morpholino-7-(pyrimidin-5-yl)quinazolin-2-yl)phenyl)urea], the IC50 in assay [3] was 0.201 to 10 µM; at mTOR kinase, less than 0.05 µM; in assay [2], 0.201 to 10 µM; in the assay with PC3 cells, 0.201 to 10 µM.
As to `CN(C)C(=O)c1ccc(NC(=O)Nc2ccc(-c3nc(N4CCOCC4)c4ccc(CO)cc4n3)cc2)cc1` [Example 285, 4-(3-(4-(7-(hydroxymethyl)-4-morpholino-quinazolin-2-yl)phenyl)ureido)-N,N-dimethyl-benzamide], the IC50 in assay [3] is 0.201 to 10 µM; on mTOR kinase, less than 0.05 µM; in assay [2] it was less than 0.05 µM; in the assay with PC3 cells, less than 0.1 µM.
For the compound `CNC(=O)c1ccc(NC(=O)Nc2ccc(-c3nc(N4CCOCC4)c4ccc(-c5cncnc5)cc4n3)cc2F)cc1` [Example 215, 4-(3-(2-fluoro-4-(4-morpholino-7-(pyrimidin-5-yl)quinazolin-2-yl)phenyl)ureido)-N-methyl-benzamide], the IC50 was in the range of 0.201 to 10 µM in assay [3], 0.05 to 0.2 µM at mTOR kinase, 0.05 to 0.2 µM in assay [2] and 0.201 to 10 µM in the assay with PC3 cells.
For `Cc1ccncc1-c1ccc2c(N3CCOCC3)nc(-c3ccc(NC(=O)Nc4ccc(C(=O)N(C)C)cc4)cc3)nc2c1` [Example 62, N,N-dimethyl-4-(3-{4-[7-(4-methyl-pyridin-3-yl)-4-morpholin-4-yl-quinazolin-2-yl]-phenyl}-ureido)-benzamide], the IC50 in assay [3] is less than 0.1 µM; on mTOR kinase it was less than 0.05 µM; in assay [2] it was less than 0.05 µM; with PC3 cells, 0.1 to 0.5 µM.
